Experimental data reported in paper PMC9697330, “Co-Delivery of 8-Hydroxyquinoline Glycoconjugates and Doxorubicin by Supramolecular Hydrogel Based on α-Cyclodextrin and pH-Responsive Micelles for Enhanced Tumor Treatment” (Pharmaceutics, 2022).
Like-named read-outs stand apart in the source and are kept apart here.

Experiments:
[1] = tested on: MCF-7 (human breast adenocarcinoma cell line); assay: MTT assay, cytotoxicity against MCF-7 cells; type: cell-based
From the text: (§1) The human breast adenocarcinoma cell line (MCF-7) was received from collections at the Maria Skłodowska-Curie Memorial Cancer Center and Institute of Oncology (Gliwice, Poland). The Normal Human Dermal Fibroblasts—Neonatal (NHDF-Neo) were purchased from LONZA (Cat. No. CC-2509, Lonza, Poland). The culture media consisted of DMEM + F12 medium, with 5% antibiotics (penicillin and streptomycin) and 10% fetal bovine serum. The culture media was bought from HyClone. Fetal bovine serum (FBS) was purchased from Eurx, Poland. Antibiotic Antimycotic Solution (100×) was purchased from Sigma-Aldrich, Germany.
(§2) The cytotoxicity of blank and drug-loaded SMH were evaluated using the MTT assay (Merck, Darmstadt, Germany). Briefly, human breast adenocarcinoma (MCF-7) or Normal Human Dermal Fibroblasts-Neonatal (NHDF-Neo) cells were seeded into 96-well plates at a concentration of 5 × 10^3 per well. The cell cultures were incubated for 24 h at 37 °C in a humidified atmosphere of 5% CO2. Afterward, the culture medium was removed, replaced with tested formulations, in a medium with varying concentrations, and incubated further for 24, 48, or 72 h, respectively. After that, the medium was removed and the MTT solution was added (0.5 mg·mL^−1 in PBS). After three hours of incubation, the MTT solution was taken off and the precipitated formazan was dissolved in dimethylsulfoxide. The absorbance was measured at 570 nm using a plate reader (Epoch, BioTek, Winooski, VT, USA). The experiments were performed in at least three independent repetitions, with four technical repeats for each tested concentration. The IC50 values were calculated using CalcuSyn software (ver. 2.0, Biosoft, Cambridge, UK). The IC50 parameter was defined as the compound concentration that was necessary to reduce the proliferation of cells to 50% of the untreated control. The results are presented as average values with standard deviations. […] Values of CI < 1 represent synergism; CI = 1 represents an additive interaction (i.e., no interaction); and CI > 1 represents antagonism.

[2] = tested on: NHDF-Neo (Normal Human Dermal Fibroblasts-Neonatal); assay: MTT assay, cytotoxicity against NHDF-Neo cells; type: cell-based
From the text: as §1, §2

[3] = NMR titration for host-guest inclusion complex of 8HQ-Glu with α-CD; type: physicochemical; details: D2O, α-CD 10 mM, 8HQ-Glu 1 to 20 mM, 24 h at rt
Procedure: SMHs were prepared based on the host–guest interaction between the PEG chains of mPEG-b-PKPC or mPEG-b-PTMC micelles and α-CD. Typically, the lyophilized micelles were resuspended (15 mg·mL^−1) in PBS at pH 7.4, as a hydrogel precursor. Then, the same volume of 12% solution of α-CD in PBS was added to the micelle solution. The mixture was vortexed for 1 min followed by sonication for 1 min. The resultant mixture was allowed to stand still overnight for solidification. Firstly, gelation was visually observed by a simple vial inversion method. […] Thus, SMHs obtained (mPEG-b-PKPC^SMH or mPEG-b-PTMC^SMH) were used for characterization studies without any further modification. The transmittance of the α-CD and mPEG-b-PKPC^mic solution, measured at predetermined time intervals at 650 nm, immediately after mixing, was studied using a UV-Vis spectrophotometer JASCO V-570 (Tokyo, Japan). To confirm the formation of supramolecular hydrogels, the samples of mPEG5k, α-CD, mPEG-b-PKPC, or mPEG-b-PTMC, the lyophilized mPEG-b-PKPC^mic, or mPEG-b-PTMC^mic, the physical mixture of α-CD with the respective micelles, and freeze-dried SMHs were studied using the X-ray diffraction method (XRD). […] The samples were incubated for 24 h at rt with gentle shaking and the NMR spectra were measured.

SMILES	IC50 ([1]; Homo sapiens, MCF7, MCF-7, 24 h incubation, read-out: Activity IC50, as 8HQ-Glu concentration) [µM]	IC50 ([1]; Homo sapiens, MCF7, MCF-7, 48 h incubation, read-out: Activity IC50, as 8HQ-Glu concentration) [µM]	IC50 ([1]; Homo sapiens, MCF7, MCF-7, 72 h incubation, read-out: Activity IC50, as 8HQ-Glu concentration) [µM]	IC50 ([2]; Homo sapiens, 24 h incubation, read-out: Activity IC50, as 8HQ-Glu concentration) [µM]	IC50 ([2]; Homo sapiens, 48 h incubation, read-out: Activity IC50, as 8HQ-Glu concentration) [µM]	IC50 ([2]; Homo sapiens, 72 h incubation, read-out: Activity IC50, as 8HQ-Glu concentration) [µM]	Host-guest inclusion complex formation with α-CD (in words) [3]	IC50 ([1]; MCF-7, 24 h incubation, read-out: Activity IC50, as DOX concentration) [µM]	IC50 ([1]; MCF-7, 48 h incubation, read-out: Activity IC50, as DOX concentration) [µM]	IC50 ([1]; MCF-7, 72 h incubation, read-out: Activity IC50, as DOX concentration) [µM]	IC50 ([2]; 24 h incubation, read-out: Activity IC50, as DOX concentration) [µM]	IC50 ([2]; 48 h incubation, read-out: Activity IC50, as DOX concentration) [µM]	IC50 ([2]; 72 h incubation, read-out: Activity IC50, as DOX concentration) [µM]
OC1O[C@H](Cn2cc(COc3cccc4cccnc34)nn2)[C@@H](O)[C@H](O)[C@H]1O (stereo partly drawn) [8HQ-Glu, 6-(4-(8-quinolinyloxymethyl)-1H-1,2,3-triazol-1-yl)-6-deoxy-D-glucopyranose]	168	128	55.3	> 200	> 200	> 200	no inclusion complex formation	–	–	–	–	–	–
COc1cccc2c1C(=O)c1c(O)c3c(c(O)c1C2=O)C[C@@](O)(C(=O)CO)C[C@@H]3O[C@H]1C[C@H](N)[C@H](O)[C@H](C)O1 [DOX, doxorubicin]	–	–	–	–	–	–	–	8.73	0.81	0.15	> 20	9.8	0.39
